In US20110263696A1, “PROANTHOCYANIDINS FROM CINNAMON AND ITS WATER SOLUBLE EXTRACT INHIBIT TAU AGGREGATION” (priority 2007, published 2011):

What was measured:
tau187 = molecular target: T1, tau187 (Homo sapiens, UniProt P10636); test: Electron microscopy of tau187 fibers; assay type: biochemical; settings: tau187 50 uM, heparin 0.1 mg/ml; trimer 200 uM (FIG. 6)
T1 construct: his; made in house; host or cells: bacteria
Method: FIG. 6. […] Aggregation of tau^187 (50 uM) was initiated with heparin (0.1 mg/ml) in 20 mM NaPO4, pH 7.0. in the presence of: no proanthocyanidin (left panel), or 200 uM purified A-type trimer (right panel). Scale: Bars=500 nm
FIG. 13. Effect of oxidized cinnamon on tau filament formation. […] Left panel: no cinnamon; right panel 10 μM oxidized cinnamon.
FIG. 15A. […] 50 μM Tau^187 was incubated with 0.11 mg/ml heparin (18 kDa) at 23° C. Aggregation was monitored by turbidity (OD350). Cinnamaldehyde was present at a final concentration of 0, 50 and 100 μM. FIG. 15B. Electron microscopy of tau fibers in the presence of cinnamaldehyde (CA). Tau fibers were visualized by electron microscopy after 5 hrs of aggregation in the presence of: 0 CA (left panel); B) 100 uM CA (right panel). […] FIG. 15 C. Trans-cinnamaldehyde chemical structure.
Two hexapeptide motifs in tau are critical for tau aggregation and fiber formation (see, e.g. von Bergen et al., Proc Nad Acad Sci USA 97, 5129-34 (2000)). These motifs lie in the first and second inter-repeat regions of the MT binding domain (FIG. 5), and it is known that engineered truncation fragments of tau that contain these motifs often undergo aggregation into fibers even more efficiently than the full-length molecule (see, e.g. Barghorn et al., Biochemistry 41, 14885-96 (2002)). […]

[1] = tested on: Full-length tau or tau 187; test: Gel electrophoresis of sarkosyl pellets vs supernatants; assay type: biochemical, human
Method: In one illustrative embodiment of the invention, gel electrophoresis also can be used to study effects on aggregation. The advantage here is that simple equipment is needed for these measurements but the system provides less definition of the effects of the inhibitors than electron microscopy. Full-length tau or tau 187 (50 uM) is induced to undergo aggregation with heparin (0.1 mg/ml) for 16 hours at room temperature in the presence of varying concentrations of cinnamon extract or cinnamon proanthocyanidin type A trimer. Samples are then treated with 1% sarkosyl for 1 hr, centrifuged (105,000 g×1 hr), and the pellets (P) versus supernatants (S) then analyzed by SDS-PAGE. The increase in the ratio of tau in the pellet compared to the supernatant is a measure of aggregation and cinnamon extract or purified proanthocyanidin is found to decrease this ratio.

[2] = tested on: tau-dependent MT assembly; test: Tau-dependent microtubule assembly, turbidity OD350; assay type: biochemical; settings: tubulin 5 uM, tau187, turbidity OD350
Method: FIG. 9. […] Tubulin (5 uM) was incubated (a) alone, or with (b) CE, (c) tau or (d) both. MT assembly was monitored by turbidity at OD350 in a continuous spectrophotometric assay.
The normal function of tau in neurons is to regulate MT assembly and dynamics. Thus it is desirable for a potential AD therapeutic to inhibit tau aggregation but not impede normal tau function. To test this, purified tubulin was incubated with either CE, tau187 or both, and MT assembly was monitored by solution turbidity. […] The reason for this is unclear, but since tau is normally an unstructured molecule, it is possible that CE promotes a conformer in tau that favors MT binding. Thus CE and proanthocyanidins appear to act as specific inhibitors of tau aggregation that are free of side effects on normal neuron function.

adipocyte cells = settings: 0.1 mg/ml PA trimer; Graves et al. 2001; cited from earlier work
FL-tau [3] = molecular target: T2, FL-tau (Homo sapiens, UniProt P10636); test: Electron microscopy of FL-tau fibers; assay type: biochemical; settings: FL-tau 50 uM, heparin 0.1 mg/ml; trimer 200 uM (FIG. 3d)
T2 construct: full-length tau and an engineered truncation fragment of tau (tau187) were generated by over-expression of the recombinant human protein in bacteria; made in house; host or cells: bacteria
Method: (§1) FIG. 3. Proanthocyanidins inhibit tau aggregation. A) Turbidity assay. Aggregation of FL-tau (50 uM) was initiated with heparin (0.1 mg/ml) in 20 mM NaPO4, pH 7.0. Curve 1: no proanthocyanidin; Curve 2: 200 uM purified A-type trimer. B) After 45 min, reactions were centrifuged at 100,000 g×60 min. The amount of tau in the pellets (P) vs. supernatants (S) were examined by SDS-PAGE. Markers (top to bottom) are 97, 66, 45 kDa. C, D) EM after aggregation for 45 min. Scale bars=500 nm; C) no proanthocyanidin, D) 200 uM purified A-type trimer.
(§2) As shown by the data disclosed in the various figures, proanthocyanidins bind to tau and inhibit tau aggregation. […] In these experiments, heparin-induced aggregation of tau into PHF-like fibers is routinely monitored by four methods: 1) enhanced Thioflavin S fluorescence emission; 2) increased turbidity measured by OD350; 3) ultracentrifugation of sarkosyl-treated samples, and 4) electron microscopy. […] To ensure that proanthocyanidin molecules were not simply binding to and precipitating tau in a non-specific manner, the amount of tau that fractionated with the pellet vs. supernatant after high-speed ultracentrifugation was analyzed.

FL-tau [4] = molecular target: T2, FL-tau; test: Turbidity assay of heparin-induced aggregation, FL-tau; assay type: biochemical; settings: FL-tau 50 uM, heparin 0.1 mg/ml, pH 7.0; trimer 200 uM (FIG. 3a)
Method: as §1, §2

tau filaments = test: Transmission electron microscopy of tau filaments; assay type: biochemical; settings: aggregating conditions
Excerpt: In one illustrative embodiment of the invention, transmission electron microscopy, is a highly desirable technique for studies of aggregation with heparin and water or with heparin and purified proanthocyanidin or cinnamon extracts from Cinnamomum zeylanicum, Cinnamomum cassia, or Cinnamomum loueirii. It provides definition of what the aggregates actually are, e.g., filaments and their abundance, sizes, and shapes.

T2 sequence (P10636 1-441 isoform P10636-8): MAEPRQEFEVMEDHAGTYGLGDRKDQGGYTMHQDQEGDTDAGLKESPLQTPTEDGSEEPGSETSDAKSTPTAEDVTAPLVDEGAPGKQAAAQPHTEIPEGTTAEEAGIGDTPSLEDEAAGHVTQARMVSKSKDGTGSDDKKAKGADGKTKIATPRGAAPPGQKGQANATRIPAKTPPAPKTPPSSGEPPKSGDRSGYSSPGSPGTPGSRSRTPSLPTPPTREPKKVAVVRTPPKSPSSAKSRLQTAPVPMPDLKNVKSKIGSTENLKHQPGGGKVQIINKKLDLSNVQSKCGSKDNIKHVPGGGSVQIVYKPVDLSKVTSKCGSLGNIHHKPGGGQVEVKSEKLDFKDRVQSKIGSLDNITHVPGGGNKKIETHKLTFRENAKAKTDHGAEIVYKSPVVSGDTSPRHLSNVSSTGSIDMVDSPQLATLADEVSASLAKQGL
T1 sequence (P10636 572-758 limits assumed): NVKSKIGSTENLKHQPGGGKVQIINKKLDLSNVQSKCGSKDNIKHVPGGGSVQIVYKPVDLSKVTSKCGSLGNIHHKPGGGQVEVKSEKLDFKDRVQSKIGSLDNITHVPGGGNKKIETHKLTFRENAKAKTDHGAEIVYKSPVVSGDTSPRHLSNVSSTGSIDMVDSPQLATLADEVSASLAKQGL
Chain of Full-length tau or tau 187 (P10636 572-758 limits assumed): as above
Chain of tau filaments (P10636 572-758 limits assumed): as above

Substance: A-linked proanthocyanidin trimer [A-type trimer]
- Inhibition of tau187 aggregation by EM (tau187): effectively inhibited
- Tau aggregation by gel electrophoresis [1]: less aggregation of tau
- Effect on tau-dependent MT assembly [2]: does not inhibit
- Glucose uptake (adipocyte cells): increase in glucose uptake
- FL-tau fibers by EM after aggregation for 45 min (FL-tau [3]): short fibers that were very much less abundant
- Inhibition of FL-tau aggregation (turbidity) (FL-tau [4]): dramatically inhibited
- Formation of tau filaments by transmission electron microscopy (tau filaments): inhibited
